Experimental data taken from patent US11248019B2, “Trityl-mono-GalNAc compounds and their use” (Hoffmann-La Roche Inc., priority 2016, dated 2022).
pIC50: −log10 of the molar value.

Assays:
[1] = tested on: ApoB mRNA; experiment: ApoB mRNA knockdown in liver and kidney by qPCR, single sc dose, sacrifice day 10 (Example 4); format: in vivo, C57BL6/J mice; settings: 0.25 mg/kg single sc dose
Description: (§1) Female C57BL6/J mice (5/group appr. 20 g at arrival) were injected subcutaneous (sc) with a single dose saline or 0.25 mg/kg unconjugated LNA-antisense oligonucleotide (compound F) or with 0.25 mg/kg or 0.1 mg/kg of GalNAc conjugated LNA antisense oligonucleotide (Compound C or E of the invention or reference compound G). Blood samples of 50 μl were collected pre-dosing at day minus 6, and post dosing at day 3 and 7. The animals were sacrificed at day 10 and total serum was collected as well as liver and kidney.
(§2) ApoB mRNA knockdown was analyzed by qPCR. In brief, RNA was isolated from homogenized liver and kidney using MagnaPure RNA Isolation and purification system (catalog #03604721001 and #05467535001; Roche) according to the manufacturer's instructions. RT-QPCR was done using Taqman Fast Universal PCR Master Mix 2×(Applied Biosystems Cat #4364103) and Taqman gene expression assay (mApoB, Mn01545150_m1 and mGAPDH #4352339E) following the manufacturers protocol.

[2] = Oligonucleotide content in liver and kidney by ELISA (Example 4); format: in vivo, C57BL6/J mice; settings: 0.25 mg/kg single sc dose, day 10
Description: as §1
The oligonucleotide content in the liver and kidney was measured using ELISA (see for example Straarup et al 2010 Nucleic Acid Res Vol 38 pp 7100-7111), results are shown in Table 6.

[3] = tested on: ApoB mRNA; experiment: ApoB mRNA knockdown in liver and kidney by qPCR, single iv dose, sacrifice day 3 (Example 6); format: in vivo, C57BL6/J mice
Description: as §2
(§3) Female C57BL6/J mice (5/group appr. 20 g at arrival) were injected intravenous (iv) with a single dose saline, 0.22 mg/kg, 0.45 mg/kg or 0.89 mg/kg, of GalNAc conjugated LNA antisense oligonucleotide (Compound H, I or J of the invention) or the naked reference compound F. Blood samples of 50 μl were collected pre-dosing at day minus 6. The animals were sacrificed at day 3. Total serum was collected as well as liver and kidney.

[4] = Oligonucleotide content in liver and kidney by ELISA (Example 6); format: in vivo, C57BL6/J mice; settings: day 3
Description: as §3
The oligonucleotide content in the liver and kidney was measured using ELISA (see for example Straarup et al 2010 Nucleic Acid Res Vol 38 pp 7100-7111), results are shown in Table 11A and 11B.

[5] = tested on: total cholesterol in serum; experiment: Total cholesterol in serum (Example 6); format: in vivo, C57BL6/J mice; settings: day 3
Description: as §3
Total cholesterol in serum was measured using ABX Pentra Cholesterol CP (Triolab, Brondby, Denmark) according to the manufacturer's instructions.

[6] = ALT in serum (Example 6); format: in vivo, C57BL6/J mice; settings: day 3
Description: as §3
ALT (Alanine aminotransferase) was measured using ABX Pentra ALT CP reagent (A11A01627 Triolab, Brondby, Denmark. The results are shown in Table 13.

[7] = tested on: ApoB mRNA; experiment: ApoB mRNA knock down in primary mouse hepatocytes, qPCR (Example 9); format: cell-based, C57BL/6J female mice; settings: n = 2
Description: Primary mouse hepatocytes were isolated from C57BL/6J female mice. The mice were anesthesized and the liver was perfused at a flow rate of 7 ml per min through the vena cava using Hank's balanced salt solution containing 15 mM Hepes and 0.38 mM EGTA for 5 min followed by collagenase solution (Hank's balanced salt solution containing 0.17 mg/ml Collagenase type 2 (Worthington 4176), 0.03% BSA, 3.2 mM CaCl2 and 1.6 g/I NaHCO3) for 12 min. Following perfusion, the liver was removed and the liver capsule was opened, the liver suspension was filtered through 70 μm cell strainer using William E medium. The cell suspension was centrifuged for 3 min at 50×g. Viable hepatocytes were further enriched by gradient centrifugation with 45% Percoll (Sigma cat. No. P4937) for 10 min at 50×g. The pellet was washed and resuspended in 25 ml William E medium (Sigma cat. no. W1878 complemented with 1×Pen/Strep, 2 mM L-glutamine and 10% FBS (ATCC #30-2030)), and seeded at 25.000 cells per well in collagen coated 96 well plates. After 3 hours the medium was exchanged and the oligonucleotides were added using 3 fold dilutions from […]. Two different incubation regimens were used, one where the cells were incubated 4 hours with oligonucleotide following a medium exchange and continued incubation to a total of 72 hours. […]

[8] = tested on: primary mouse hepatocytes; experiment: Oligonucleotide content in primary mouse hepatocyte culture by ELISA (Example 9); format: in vitro ADME, C57BL/6J female mice
Description: Primary mouse hepatocytes were isolated from C57BL/6J female mice. The mice were anesthesized and the liver was perfused at a flow rate of 7 ml per min through the vena cava using Hank's balanced salt solution containing 15 mM Hepes and 0.38 mM EGTA for 5 min followed by collagenase solution (Hank's balanced salt solution containing 0.17 mg/ml Collagenase type 2 (Worthington 4176), 0.03% BSA, 3.2 mM CaCl2 and 1.6 g/I NaHCO3) for 12 min. Following perfusion, the liver was removed and the liver capsule was opened, the liver suspension was filtered through 70 μm cell strainer using William E medium. The cell suspension was centrifuged for 3 min at 50×g. Viable hepatocytes were further enriched by gradient centrifugation with 45% Percoll (Sigma cat. No. P4937) for 10 min at 50×g. The pellet was washed and resuspended in 25 ml William E medium (Sigma cat. no. W1878 complemented with 1×Pen/Strep, 2 mM L-glutamine and 10% FBS (ATCC #30-2030)), and seeded at 25.000 cells per well in collagen coated 96 well plates. […] Two different incubation regimens were used, one where the cells were incubated 4 hours with oligonucleotide following a medium exchange and continued incubation to a total of 72 hours. In the second regimen the cells were incubated for 72 hours with the oligonucleotides.
Oligonucleotide content analysis was performed using ELISA (see for example Straarup et al 2010 Nucleic Acid Res Vol 38 pp 7100-7111), results are shown in table 20 and 21 below.

Oligonucleotide content, Kidney [2]: 1.370 μg/g tissue
Oligonucleotide content, Liver [2]: 0.028 μg/g tissue
Oligonucleotide content in kidney tissue ([4]; 0.22 mg/kg single iv dose): 0.337 µg/g
Oligonucleotide content in liver tissue ([4]; 0.22 mg/kg single iv dose): 0.059 µg/g
Oligonucleotide content in kidney tissue ([4]; 0.45 mg/kg single iv dose): 0.506 µg/g
Oligonucleotide content in liver tissue ([4]; 0.45 mg/kg single iv dose): 0.173 µg/g
Oligonucleotide content in kidney tissue ([4]; 0.89 mg/kg single iv dose): 1.050 µg/g
Oligonucleotide content in liver tissue ([4]; 0.89 mg/kg single iv dose): 0.470 µg/g
oligonucleotide content in the cell culture ([8]; 4 h pulse, 72 hours total incubation, 1 μM): 0.1 pmol/μg protein
oligonucleotide content in the cell culture ([8]; 4 h pulse, 72 hours total incubation, 3 μM): 0.4 pmol/μg protein
oligonucleotide content in the cell culture ([8]; 4 h pulse, 72 hours total incubation, 9 μM): 1.0 pmol/μg protein
oligonucleotide content in the cell culture ([8]; 4 h pulse, 72 hours total incubation, 27 μM): 1.4+/−0.2 pmol/μg protein
oligonucleotide content in the cell culture ([8]; 72 h oligonucleotide treatment, 0.11 μM): 0.5 pmol/μg protein
oligonucleotide content in the cell culture ([8]; 72 h oligonucleotide treatment, 0.33 μM): 1.5 pmol/μg protein
oligonucleotide content in the cell culture ([8]; 72 h oligonucleotide treatment, 1 μM): 7.9 pmol/μg protein
oligonucleotide content in the cell culture ([8]; 72 h oligonucleotide treatment, 3 μM): 14.5 pmol/μg protein
oligonucleotide content in the cell culture ([8]; 72 h oligonucleotide treatment, 9 μM): 34.1 pmol/μg protein
oligonucleotide content in the cell culture ([8]; 72 h oligonucleotide treatment, 27 μM): 34.2+/−0.7 pmol/μg protein
Substance: 5′-GS^mCSaStStSgSgStSaStSTS^mCSA-3′ [Compound F, reference compound]
ApoB mRNA expression as % of saline, mRNA kidney ([1]; day 10, kidney): 24.7 % of saline
ApoB mRNA expression as % of saline, mRNA liver ([1]; day 10, liver): 74.5 % of saline
ApoB mRNA expression as % of saline in kidney ([3]; 0.22 mg/kg single iv dose): 68.0 % of saline
ApoB mRNA/mGAPDH expression as % of saline in liver ([3]; 0.22 mg/kg single iv dose): 87.5 % of saline
ApoB mRNA expression as % of saline in kidney ([3]; 0.45 mg/kg single iv dose): 51.1 % of saline
ApoB mRNA/mGAPDH expression as % of saline in liver ([3]; 0.45 mg/kg single iv dose): 90.2 % of saline
ApoB mRNA expression as % of saline in kidney ([3]; 0.89 mg/kg single iv dose): 29.0 % of saline
ApoB mRNA/mGAPDH expression as % of saline in liver ([3]; 0.89 mg/kg single iv dose): 53.8 % of saline
serum cholesterol percent of saline ([5]; 0.22 mg/kg single iv dose): 104.3% of saline
serum cholesterol percent of saline ([5]; 0.45 mg/kg single iv dose): 86.8% of saline
serum cholesterol percent of saline ([5]; 0.89 mg/kg single iv dose): 66.9% of saline
ALT levels (U/L) in serum at day 3 as % of saline ([6]; 0.22 mg/kg single iv dose): 91 % of saline
ALT levels (U/L) in serum at day 3 as % of saline ([6]; 0.45 mg/kg single iv dose): 151 % of saline
ALT levels (U/L) in serum at day 3 as % of saline ([6]; 0.89 mg/kg single iv dose): 217 % of saline
pIC50 ([7]; 4 h pulse/72 h total incubation): 5.58
pIC50 ([7]; 72 h oligonucleotide treatment): 6.48
